This note sets out measurements from patent publication US12122750B2, “AT2R antagonists and uses thereof” (Eli Lilly and Company, priority 2022, dated 2024).

Structures are written as SMILES.

The target in this test is recombinant human angiotensin-II receptor subtype 2 (hAT2R) (Homo sapiens (Human), UniProt P50052). In words: Competitive radioligand binding assay (SPA), hAT2R HEK293 membranes. The following applies: [125I]-Tyr4-Angiotensin-II, read-out: AT2R Ki. How it is done:
Compound Solubilization Test and reference compounds were received as dry powder reagents, weighed, and solubilized in 100% DMSO to generate a working stock concentration of 10 mM. Membrane Preparation Protocol (hAT2R HEK293 and rAT2R HEK293) hAT2R membranes were prepared from human embryonic kidney (HEK293) cells which were stably transfected with recombinant human angiotensin-II receptor subtype 2 (hAT2R). Cells from the stable cell lines were expanded in tissue culture flasks to generate a large population of cells; cell pellet (>1 gm), and these cell pellets were stored frozen prior to initiating this membrane isolation procedure for each receptor isoform. Frozen cell pellets were thawed in ice-cold homogenization/resuspension buffer (50 mM Tris-HCl, pH 7.5) containing one Complete© protease inhibitor tablet with EDTA (Roche Diagnostics) per 50 mL buffer, and cell pellet was resuspended at a ratio of 10 mL homogenization buffer to gram of starting cell pellet. Cell suspension was homogenized with an overhead motor-driven Teflon-glass homogenizer using 15 to 20 strokes, followed by centrifugation at 1100×g for 10 minutes at 4° C. The supernatant was saved on ice, pellets were homogenized as before, and centrifuged at 1100×g for 10 minutes at 4° C. Both supernatants were combined and subsequently centrifuged at 35,000×g for 60 minutes at 4° C. The final centrifugation pellet (pellet 2) containing the isolated membranes was resuspended in buffer (4 to 5 mL/g of starting cell paste) containing protease inhibitors and quick frozen in liquid nitrogen prior to storage at -80° C. Protein concentration was determined using a BCA kit (ThermoScientific, Inc.) with bovine serum albumin (BSA) as standard. […] The assays were performed with a scintillation proximity assay (SPA) method using polyvinyltoluene (PVT) wheat germ agglutinin-coupled SPA beads (Perkin Elmer Cat. #RPNQ0001). Assay buffer containing BSA (50 mM Tris-HCl, pH 7.5, 150 mM NaCl, 0.1% w/v fatty-acid free BSA) was used for preparing radioligand, membrane and SPA bead reagent dilution to working stock concentrations. Reference control and test compounds were diluted to obtain ten-point concentration response curves using a four-fold serial dilution protocol onto assay plates, dispensed acoustically from DMSO stock using automated ECHO instrument technology (Labcyte, Inc.). Concentration response curves were routinely generated with the highest final assay concentration for the reference angiotensin-II control at 50 nM, and the highest final assay concentration for the test compounds at 50 μM. […] The hAT2R membrane was combined with PVT-WGA SPA beads to obtain a final assay concentration of 0.25 μg/well hAT2R membrane+0.1 mg/well PVT-WGA SPA bead. And the hAT1R membrane PVT-WGA SPA bead final concentrations was 0.5 μg/well hAT1R membrane+0.1 mg/well PVT-WGA SPA bead. […] For all assays, radioligand addition was followed by the addition of membrane-SPA bead mixture, i.e., the hAT2R membrane-SPA bead mixture (30 μL), the rAT2R membrane-SPA bead mixture, or the AT1R membrane-SPA bead mixture (30 μL) into the assay plate. All dispensing steps were added using a Multiflo FX (Biotek, Inc.) bulk dispensing instrument. After reagent addition steps, assay plates were sealed, and plate contents mixed for one minute on a benchtop micro-plate shaker. Following a 10-hour incubation at room temperature to allow for bead settling and radioligand binding, bound radioactivity was quantitated using a Microbeta Trilux scintillation counter (Perkin Elmer) and expressed as counts per minute (CPM). The unlabeled angiotensin-II control was included on each plate as an experimental assay reference. […] Data Analysis Procedures Compounds were tested in a 10-point concentration response curve (CRC) format, with each plate containing the positive control angiotensin-II positive reference compound, and experimental compounds.

Sequence of recombinant human angiotensin-II receptor subtype 2 (hAT2R) (P50052 whole entry): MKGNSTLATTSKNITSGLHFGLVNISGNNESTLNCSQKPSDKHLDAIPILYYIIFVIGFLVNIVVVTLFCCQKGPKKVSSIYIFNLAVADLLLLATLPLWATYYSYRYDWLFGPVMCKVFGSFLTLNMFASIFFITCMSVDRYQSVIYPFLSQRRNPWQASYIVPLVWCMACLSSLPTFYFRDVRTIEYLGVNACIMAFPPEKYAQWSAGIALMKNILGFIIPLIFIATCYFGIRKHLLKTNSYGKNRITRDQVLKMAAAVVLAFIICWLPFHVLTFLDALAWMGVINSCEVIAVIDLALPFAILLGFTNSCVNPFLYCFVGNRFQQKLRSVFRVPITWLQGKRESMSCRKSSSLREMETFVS

Turning to `CN(C(=O)N1CCC(CC(=O)N(c2ccccc2F)C2CCCC(F)(F)C2)(C(=O)O)CC1)c1ccccc1` (racemic) [Example 52, 4-[2-(N-(3,3-difluorocyclohexyl)-2-fluoro-anilino)-2-oxo-ethyl]-1-[methyl(phenyl)carbamoyl]piperidine-4-carboxylic acid], the inhibitory constant (Ki) (as a rule, the dissociation constant of the complex between target and ligand, obtained from inhibition or displacement) stood at 0.58 nM.

With `O=C(N1CCC(CC(=O)N(c2ccccc2F)c2ccccc2F)(C(=O)O)CC1)N1CCc2ccccc21` [Example 59, 4-[2-(2-fluoro-N-(2-fluorophenyl)anilino)-2-oxo-ethyl]-1-(indoline-1-carbonyl)piperidine-4-carboxylic acid], the Ki turned out to be 4.23 nM. As for `CN(C(=O)N1CCC(CC(=O)N(c2ccccc2)C2CCCCC2)(C(=O)O)CC1)c1ccccc1F` [Example 12, 4-[2-(N-cyclohexylanilino)-2-oxo-ethyl]-1-[(2-fluorophenyl)-methyl-carbamoyl]piperidine-4-carboxylic acid], the Ki was 0.521 nM. In the case of `Cc1ccc(N(C(=O)CC2(C(=O)O)CCN(C(=O)N(C)c3ccc(F)cc3)CC2)c2ccccc2)cc1` [compound 29, 1-[(4-fluorophenyl)-methyl-carbamoyl]-4-[2-oxo-2-[N-(p-tolyl)anilino]ethyl]piperidine-4-carboxylic] it was 3.11 nM; in that of `CN(C(=O)N1CCC(CC(=O)N(c2ccccc2)c2cccc(F)c2)(C(=O)O)CC1)c1ccc(F)cc1` [compound 24, 4-[2-(N-(3-fluorophenyl)anilino)-2-oxo-ethyl]-1-[(4-fluorophenyl)-methyl-carbamoyl]piperidine-4-carboxylic acid], 0.774 nM; in that of `O=C(N1CCC(CC(=O)N(c2ccccc2)C2CCCC(F)(F)C2)(C(=O)O)CC1)N1CCc2c(F)cccc21` (racemic) [Example 71, 4-[2-(N-(3,3-difluorocyclohexyl)anilino)-2-oxo-ethyl]-1-(4-fluoroindoline-1-carbonyl)piperidine-4-carboxylic acid], 3.14 nM. The same measure for `O=C(N1CCC(CC(=O)N(c2ccccc2)C2CCCCC2)(C(=O)O)CC1)N1CCc2ccccc21` [Example 6, 4-[2-(N-cyclohexylanilino)-2-oxo-ethyl]-1-(indoline-1-carbonyl)piperidine-4-carboxylic acid]: 9.08 nM; for `O=C(N1CCC(CC(=O)N(c2ccccc2)C2CCCC(F)(F)C2)(C(=O)O)CC1)N1CCc2ccc(F)cc21` (single isomer, unassigned) [Example 72B, 4-[2-(N-(3,3-difluorocyclohexyl)anilino)-2-oxo-ethyl]-1-(6-fluoroindoline-1-carbonyl)piperidine-4-carboxylic acid]: 0.383 nM; for `CN(C(=O)N1CCC(CC(=O)N(c2cccc(F)c2)C2CCCCC2)(C(=O)O)CC1)c1ccc(F)cc1` [compound 27, 4-[2-(N-cyclohexyl-3-fluoro-anilino)-2-oxo-ethyl]-1-[(4-fluorophenyl)-methyl-carbamoyl]piperidine-4-carboxylic acid]: 0.4 nM. The same measure for `CC(C(=O)N1CCC(CC(=O)N(c2ccccc2)C2CCCC(F)(F)C2)(C(=O)O)CC1)c1ccccc1F` (racemic) [Example 64, 4-[2-(N-(3,3-difluorocyclohexyl)anilino)-2-oxo-ethyl]-1-[2-(2-fluorophenyl)propanoyl]piperidine-4-carboxylic acid]: 1.04 nM. Regarding `CN(C(=O)N1CCC(CC(=O)N(c2ccccc2)C2CCCC2)(C(=O)O)CC1)c1ccc(F)cc1` [Example 9, 4-[2-(N-cyclopentylanilino)-2-oxo-ethyl]-1-[(4-fluorophenyl)-methyl-carbamoyl]piperidine-4-carboxylic acid], the inhibition constant (Ki) turned out to be 2.62 nM. For the compound `O=C(CC1(C(=O)O)CCN(c2ccccc2)CC1)N(c1ccccc1)C1CCCCC1` [Example 48, 4-[2-(N-cyclohexylanilino)-2-oxo-ethyl]-1-phenyl-piperidine-4-carboxylic acid], the inhibition constant (Ki) stood at 3.59 nM.

Regarding `CC(C1CC1)N(C(=O)CC1(C(=O)O)CCN(C(=O)N(C)c2ccc(F)cc2)CC1)c1ccccc1` (racemic) [Example 43, 4-[2-[N-(1-cyclopropylethyl)anilino]-2-oxo-ethyl]-1-[(4-fluorophenyl)-methyl-carbamoyl]piperidine-4-carboxylic acid], the Ki came to 2.93 nM. `CC(CC(F)F)N(C(=O)CC1(C(=O)O)CCN(C(=O)N(C)c2ccc(F)cc2)CC1)c1ccccc1` (racemic) [Example 36, 4-[2-(N-(3,3-difluoro-1-methyl-propyl)anilino)-2-oxo-ethyl]-1-[(4-fluorophenyl)-methyl-carbamoyl]piperidine-4-carboxylic acid]: the Ki came to 4.43 nM. In the case of `O=C(Cc1ccccc1F)N1CCC(CC(=O)N(c2ccccc2)C2CCCC(F)(F)C2)(C(=O)O)CC1` (racemic) [Example 65, 4-[2-(N-(3,3-difluorocyclohexyl)anilino)-2-oxo-ethyl]-1-[2-(2-fluorophenyl)acetyl]piperidine-4-carboxylic acid] it was 2.55 nM; in that of `CN(C(=O)N1CCC(CC(=O)N(c2ccccc2)C2CCCCC2(F)F)(C(=O)O)CC1)c1ccc(F)cc1` (racemic) [Example 10, 4-[2-(N-(2,2-difluorocyclohexyl)anilino)-2-oxo-ethyl]-1-[(4-fluorophenyl)-methyl-carbamoyl]piperidine-4-carboxylic acid], 1.56 nM; in that of `Cc1ccccc1N(C(=O)CC1(C(=O)O)CCN(C(=O)N(C)c2ccc(F)cc2)CC1)c1ccccc1` [Example 37, 1-[(4-fluorophenyl)-methyl-carbamoyl]-4-[2-[N-(o-tolyl)anilino]-2-oxo-ethyl]piperidine-4-carboxylic acid], 0.987 nM. On to `O=C(CC1(C(=O)O)CCN(C(=O)N(c2ccc(F)cc2)C2CC2)CC1)N(c1ccccc1)c1ccccc1` [Example 39, 1-[cyclopropyl-(4-fluorophenyl)carbamoyl]-4-[2-oxo-2-(N-phenylanilino)ethyl]piperidine-4-carboxylic acid], for which the Ki stood at 2.82 nM. The same measure for `CC(C1CC1)N(C(=O)CC1(C(=O)O)CCN(C(=O)N(C)c2ccc(F)cc2)CC1)c1ccccc1` (single isomer, unassigned) [Example 43A, 4-[2-[N-(1-cyclopropylethyl)anilino]-2-oxo-ethyl]-1-[(4-fluorophenyl)-methyl-carbamoyl]piperidine-4-carboxylic acid]: 2.19 nM; for `CN(C(=O)N1CCC(CC(=O)N(c2ccc(F)cc2)C2CCCC(F)(F)C2)(C(=O)O)CC1)c1ccccc1` (racemic) [Example 54, 4-[2-(N-(3,3-difluorocyclohexyl)-4-fluoro-anilino)-2-oxo-ethyl]-1-[methyl(phenyl)carbamoyl]piperidine-4-carboxylic acid]: 2 nM.
